Data taken from patent US20090181986A1, “SUBSTITUTED HETEROCYCLIC COMPOUNDS” (priority 2007, published 2009).

Columns and labels:
L-type calcium channel = L-type calcium channel activity well-plate assay (IMR-32 cells, Ca-4 dye, FlexStation); format: cell-based, human
Experimental: Cell Culture: IMR-32 (human neuroblastoma) cells were obtained from The American Type Culture Collection. The cells were maintained in MEM supplemented with 10% fetal bovine serum, 2 mM of L-glutamine, 100 IU/ml of penicillin, 50 μg/ml of streptomycin, 1% of sodium pyruvate, 1% of sodium bicarbonate and 1% of non-essential amino acid. […] Culture medium was changed every two days and cells were recultivated when they reached 70-80% confluent.
Assay: IMR-32 cells were seeded on a Microtest 96-well Assay Plate (BD FALCON™) at a density of 200,000 cells/well in 200 μl culture medium for overnight. The culture medium was removed, and replaced by 120 μl Ca-4 dye (MDS Analytical Technologies, Sunnyvale, Calif.) in HBSS (1× Hank's Balanced Salt solution plus 20 mM HEPES, pH 7.4) containing 2 mM probenecid. Cells were then incubated for 1 hour at 37° in incubator. Testing compounds were diluted from 5 μM-50 μM in HBSS, and 40 μl were added in cells before assay. […] The inhibition of L-type calcium channel activity by compounds was then calculated.

hERG potassium channel = hERG potassium channel (Homo sapiens, UniProt Q12809); test: hERG screening assay (PatchXpress patch clamp, CHO cells)
hERG potassium channel, sequence (Q12809 whole entry): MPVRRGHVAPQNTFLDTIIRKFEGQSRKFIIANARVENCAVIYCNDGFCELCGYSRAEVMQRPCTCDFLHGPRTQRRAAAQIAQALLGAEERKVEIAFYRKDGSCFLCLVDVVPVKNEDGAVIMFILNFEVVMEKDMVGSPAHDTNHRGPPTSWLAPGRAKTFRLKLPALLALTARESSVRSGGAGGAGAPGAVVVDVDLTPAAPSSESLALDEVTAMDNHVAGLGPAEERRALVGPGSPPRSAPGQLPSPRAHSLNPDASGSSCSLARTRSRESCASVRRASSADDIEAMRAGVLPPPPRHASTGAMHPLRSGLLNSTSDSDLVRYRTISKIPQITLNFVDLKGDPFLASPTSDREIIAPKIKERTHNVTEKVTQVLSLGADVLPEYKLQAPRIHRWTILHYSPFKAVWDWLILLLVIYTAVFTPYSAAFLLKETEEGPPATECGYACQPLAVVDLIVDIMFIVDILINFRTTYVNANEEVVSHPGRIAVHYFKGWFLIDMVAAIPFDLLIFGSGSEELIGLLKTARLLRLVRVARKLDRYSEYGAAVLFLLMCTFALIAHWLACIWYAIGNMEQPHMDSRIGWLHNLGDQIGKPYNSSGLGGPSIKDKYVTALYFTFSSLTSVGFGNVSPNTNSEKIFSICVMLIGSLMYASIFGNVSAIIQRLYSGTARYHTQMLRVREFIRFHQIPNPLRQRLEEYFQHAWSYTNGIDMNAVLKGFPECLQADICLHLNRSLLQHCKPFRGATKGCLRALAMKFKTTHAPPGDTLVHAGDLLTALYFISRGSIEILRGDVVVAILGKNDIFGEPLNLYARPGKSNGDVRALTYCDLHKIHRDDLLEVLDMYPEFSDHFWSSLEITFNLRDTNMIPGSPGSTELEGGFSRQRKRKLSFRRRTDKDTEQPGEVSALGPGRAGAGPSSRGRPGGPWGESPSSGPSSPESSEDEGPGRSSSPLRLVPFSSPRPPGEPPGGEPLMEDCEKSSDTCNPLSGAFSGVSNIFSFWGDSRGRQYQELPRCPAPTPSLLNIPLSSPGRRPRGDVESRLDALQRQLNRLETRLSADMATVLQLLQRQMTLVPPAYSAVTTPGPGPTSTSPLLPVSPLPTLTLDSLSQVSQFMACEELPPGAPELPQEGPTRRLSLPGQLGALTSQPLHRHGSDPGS

Row | SMILES | CaL Plate Assay % blk (1 μM test cmpd) (L-type calcium channel) | CaL Plate Assay % blk (10 μM test cmpd) (L-type calcium channel) | hERG Patch Clamp hERG % blk (1 μM test cmpd) (hERG potassium channel) | hERG Patch Clamp hERG % blk (10 μM test cmpd) (hERG potassium channel)
1 | N#CC1=C(N)OC2=C(C(=O)CCC2)C1c1ccsc1 (stereo not drawn) [PT-100, 2-amino-5-oxo-4-(thiophen-3-yl)-5,6,7,8-tetrahydro-4H-chromene-3-carbonitrile] | 0% | 0% | 10% | 16.5%
2 | N#CC1=C(N)OC2=C(C(=O)CC(c3ccccc3)C2)C1c1cccs1 (stereo not drawn) [PT-101, 2-amino-5-oxo-7-phenyl-4-(thiophen-2-yl)-5,6,7,8-tetrahydro-4H-chromene-3-carbonitrile] | 6% | 47% | 19% | 67.5%
3 | N#CC1=C(N)OC2=C(C(=O)CC(c3ccccc3)C2)C1c1ccco1 (stereo not drawn) [PT-104, 2-amino-4-(furan-2-yl)-5-oxo-7-phenyl-5,6,7,8-tetrahydro-4H-chromene-3-carbonitrile] | 0% | 27% | 18% | 46%
4 | CCOC(=O)C1=C(C)NC(C)=C(C(=O)OCC)C1c1ccc2ccccc2c1 [PT-107, diethyl 2,6-dimethyl-4-(naphthalen-2-yl)-1,4-dihydropyridine-3,5-dicarboxylate] | 10% | 44% | 11.5% | 48%
5 | CCOC(=O)C1=C(C)NC(C)=C(C(=O)OCC)C1c1cccs1 [PT-111, diethyl 2,6-dimethyl-4-(thiophen-2-yl)-1,4-dihydropyridine-3,5-dicarboxylate] | 75% | 79% | 11.5% | 48.5%
6 | CCOC(=O)C1=C(C)NC(C)=C(C(=O)OCC)C1c1ccc(CC)s1 [PT-113, diethyl 4-(5-ethylthiophen-2-yl)-2,6-dimethyl-1,4-dihydropyridine-3,5-dicarboxylate] | 18% | 93% | 11% | 57.5%
7 | CCOC(=O)C1=C(C)NC(C)=C(C(=O)OCC)C1c1cc2ccccc2s1 [PT-114, diethyl 4-(benzo[b]thiophen-2-yl)-2,6-dimethyl-1,4-dihydropyridine-3,5-dicarboxylate] | 8% | 15% | 27.5% | 86.5%
8 | CCOC(=O)C1=C(C)NC(C)=C(C(=O)OCC)C1c1sc2ccccc2c1C [PT-116, diethyl 2,6-dimethyl-4-(3-methylbenzo[b]thiophen-2-yl)-1,4-dihydropyridine-3,5-dicarboxylate] | 6% | 32% | 22.9% | 66%
9 | CCOC(=O)C1=C(C)NC(C)=C(C(=O)OCC)C1c1cc2ccccc2o1 [PT-122, diethyl 4-(benzofuran-2-yl)-2,6-dimethyl-1,4-dihydropyridine-3,5-dicarboxylate] | 10% | 63% | 15.5% | 55%
10 | CC1=C(C(=O)OC(C)C)C(c2cccc3ccccc23)C(C(=O)OC(C)C)=C(C)N1 [PT-123, diisopropyl 2,6-dimethyl-4-(naphthalen-1-yl)-1,4-dihydropyridine-3,5-dicarboxylate] | 59% | 92% | 10% | 30.5%
11 | CC1=C(C(=O)OC(C)C)C(c2ccc(Br)s2)C(C(=O)OC(C)C)=C(C)N1 [PT-124, diisopropyl 4-(5-bromothiophen-2-yl)-2,6-dimethyl-1,4-dihydropyridine-3,5-dicarboxylate] | 10% | 52% | 11.5% | 66%
12 | CCCC1=C(C(=O)OCC)C(c2ccsc2)C2=C(CC(c3ccccc3)CC2=O)N1 (stereo not drawn) [PT-149, ethyl 5-oxo-7-phenyl-2-propyl-4-(thiophen-3-yl)-1,4,5,6,7,8-hexahydroquinoline-3-carboxylate] | 4% | 72% | 46% | 90%
13 | CCOC(=O)C1=C(C)NC2=C(C(=O)CCC2)C1c1ccco1 (stereo not drawn) [PT-153, ethyl 4-(furan-2-yl)-2-methyl-5-oxo-1,4,5,6,7,8-hexahydroquinoline-3-carboxylate] | 3% | 44% | 10.5% | 13.5%
14 | CC1=C(C(=O)N2CCC(c3ccc(C(=O)O)cc3)CC2)C(c2cccc3ccccc23)C2=C(CCCC2=O)N1 (stereo not drawn) [PT-173, 4-(1-(2-methyl-4-(naphthalen-1-yl)-5-oxo-1,4,5,6,7,8-hexahydroquinoline-3-carbonyl)piperidin-4-yl)benzoic acid] | 0% | 26% | 12% | 37%
15 | CC1=C(C(=O)NCc2ccccc2)C(c2ccsc2)C2=C(CCCC2=O)N1 (stereo not drawn) [PT-178, N-benzyl-2-methyl-5-oxo-4-(thiophen-3-yl)-1,4,5,6,7,8-hexahydroquinoline-3-carboxamide] | 10% | 2% | 11.5% | 30%
16 | CCOC(=O)C1=C(CC)NC(CC)=C(C(=O)OCC)C1c1ccc(Br)s1 [PT-181, diethyl 4-(5-bromothiophen-2-yl)-2,6-diethyl-1,4-dihydropyridine-3,5-dicarboxylate] | 8% | 61% | 10.5% | 73%
17 | CCOC(=O)C1=C(C(C)C)NC(C(C)C)=C(C(=O)OCC)C1c1ccc(Br)s1 [PT-183, diethyl 4-(5-bromothiophen-2-yl)-2,6-diisopropyl-1,4-dihydropyridine-3,5-dicarboxylate] | 0% | 16% | 10% | 10%
18 | CCOC(=O)C1=C(C)N(C)C(C)=C(C(=O)OCC)C1c1cccc2ccccc12 [PT-191, diethyl 1,2,6-trimethyl-4-(naphthalen-1-yl)-1,4-dihydropyridine-3,5-dicarboxylate] | 12% | 37% | 26.5% | 68%
19 | CCOC(=O)C1=C(C)Nc2nnnn2C1c1cccc2ccccc12 (stereo not drawn) [PT-192, ethyl 5-methyl-7-(naphthalen-1-yl)-4,7-dihydrotetrazolo[1,5-a]pyrimidine-6-carboxylate] | 9% | 12% | 23% | 29%
20 | CCOC(=O)C1=C(C)Nc2nc(C#N)c(C#N)n2C1c1cccc2ccccc12 (stereo not drawn) [PT-194, ethyl 2,3-dicyano-7-methyl-5-(naphthalen-1-yl)-5,8-dihydroimidazo[1,2-a]pyrimidine-6-carboxylate] | 21% | 61% | 25% | 91%
21 | CC1=C(C(=O)OCc2ccccc2)C(c2cccc3ccccc23)n2nnnc2N1C (stereo not drawn) [PT-195, benzyl 4,5-dimethyl-7-(naphthalen-1-yl)-4,7-dihydrotetrazolo[1,5-a]pyrimidine-6-carboxylate] | 0% | 88% | 12.5% | 49%
